From ChEMBL document CHEMBL1159340, “Antibacterial diterpenes from Calceolaria pinifolia” (J Nat Prod, 2003)
Values after ≈ are worked out from the molar mass of the structure shown.

Columns and labels:
Bacillus subtilis [1] = assay: Antimicrobial activity against Bacillus subtilis 327 after 18 hrs by microbroth dilution method; type: functional
Staphylococcus aureus [2] = assay: Antimicrobial activity against methicillin-susceptible Staphylococcus aureus 375 after 18 hrs by microbroth dilution method; type: functional
Staphylococcus aureus [3] = assay: Antimicrobial activity against methicillin-resistant Staphylococcus aureus 310 after 18 hrs by microbroth dilution method; type: functional
Escherichia coli = assay: Antimicrobial activity against Escherichia coli imp 389 after 18 hrs by microbroth dilution method; type: functional
Bacillus subtilis [4] = assay: Inhibition of DNA synthesis in Bacillus subtilis assessed as [3H]thymidine uptake at 0.25 ug/mL by LKB Betaplate scintillation counter relative to control; type: functional; design: scale not given: the % may be the effect or the level left
Bacillus subtilis [5] = assay: Inhibition of DNA synthesis in Bacillus subtilis assessed as incorporation of [3H]thymidine at 0.25 ug/mL by LKB Betaplate scintillation counter relative to control; type: functional; design: scale not given: the % may be the effect or the level left
Bacillus subtilis [6] = assay: Inhibition of RNA synthesis in Bacillus subtilis assessed as [3H]uridine uptake at 0.25 ug/mL by LKB Betaplate scintillation counter relative to control; type: functional; design: scale not given: the % may be the effect or the level left
Bacillus subtilis [7] = assay: Inhibition of RNA synthesis in Bacillus subtilis assessed as incorporation of [3H]uridine at 0.25 ug/mL by LKB Betaplate scintillation counter relative to control; type: functional; design: scale not given: the % may be the effect or the level left
Bacillus subtilis [8] = assay: Inhibition of protein synthesis in Bacillus subtilis assessed as [3H]amino acid uptake at 0.25 ug/mL by LKB Betaplate scintillation counter relative to control; type: functional; design: scale not given: the % may be the effect or the level left
Bacillus subtilis [9] = assay: Inhibition of protein synthesis in Bacillus subtilis assessed as incorporation of [3H]amino acid at 0.25 ug/mL by LKB Betaplate scintillation counter relative to control; type: functional; design: scale not given: the % may be the effect or the level left
Bacillus subtilis [10] = assay: Inhibition of DNA synthesis in Bacillus subtilis assessed as [3H]thymidine uptake at 8 ug/mL by LKB Betaplate scintillation counter relative to control; type: functional; design: scale not given: the % may be the effect or the level left
Bacillus subtilis [11] = assay: Inhibition of protein synthesis in Bacillus subtilis assessed as incorporation of [3H]amino acid at 8 ug/mL by LKB Betaplate scintillation counter relative to control; type: functional; design: scale not given: the % may be the effect or the level left
Bacillus subtilis [12] = assay: Inhibition of protein synthesis in Bacillus subtilis assessed as [3H]amino acid uptake at 8 ug/mL by LKB Betaplate scintillation counter relative to control; type: functional; design: scale not given: the % may be the effect or the level left
Bacillus subtilis [13] = assay: Inhibition of RNA synthesis in Bacillus subtilis assessed as incorporation of [3H]uridine at 8 ug/mL by LKB Betaplate scintillation counter relative to control; type: functional; design: scale not given: the % may be the effect or the level left
Bacillus subtilis [14] = assay: Inhibition of RNA synthesis in Bacillus subtilis assessed as [3H]uridine uptake at 8 ug/mL by LKB Betaplate scintillation counter relative to control; type: functional; design: scale not given: the % may be the effect or the level left
Bacillus subtilis [15] = assay: Inhibition of DNA synthesis in Bacillus subtilis assessed as incorporation of [3H]thymidine at 8 ug/mL by LKB Betaplate scintillation counter relative to control; type: functional; design: scale not given: the % may be the effect or the level left
[16] = Toxicity in human RBC assessed as hemolysis at 16 ug/ml after 2 hrs; type: cell-based, Erythrocyte; conditions: red blood cells (RBC), read-out: Activity
[17] = Toxicity in human RBC assessed as hemolysis at 8 ug/ml after 2 hrs; type: cell-based, Erythrocyte; conditions: red blood cells (RBC), read-out: Activity
[18] = Toxicity in human RBC assessed as hemolysis at 4 ug/ml after 2 hrs; type: cell-based, Erythrocyte; conditions: red blood cells (RBC), read-out: Activity
[19] = Toxicity in human RBC assessed as hemolysis at 2 ug/ml after 2 hrs; type: cell-based, Erythrocyte; conditions: red blood cells (RBC), read-out: Activity
[20] = Toxicity in human RBC assessed as hemolysis at 1 ug/ml after 2 hrs; type: cell-based, Erythrocyte; conditions: red blood cells (RBC), read-out: Activity
[21] = Toxicity in human RBC assessed as hemolysis at 0.5 ug/ml after 2 hrs; type: cell-based, Erythrocyte; conditions: red blood cells (RBC), read-out: Activity

SMILES: CC1(C)S[C@@H]2[C@H](NC(=O)Cc3ccccc3)C(=O)N2[C@H]1C(=O)O [PENICILLIN G]
- MIC (Bacillus subtilis [1]): 0.03 mg/L (≈ 0.0897 µM)
- MIC (Staphylococcus aureus [2]): 0.03 mg/L (≈ 0.0897 µM)
- MIC (Staphylococcus aureus [3]): 128 mg/L (≈ 383 µM)
- MIC (Escherichia coli): 1 mg/L (≈ 2.99 µM)

SMILES: CC1(C)CC[C@]2(C(=O)O)CC[C@]3(C)C(=CC[C@@H]4[C@@]5(C)CC[C@@H](O)C(C)(C)[C@@H]5CC[C@]43C)[C@@H]2C1
- MIC (Bacillus subtilis [1]): 64 mg/L (≈ 140 µM)
- MIC (Staphylococcus aureus [2]): > 128 mg/L
- MIC (Escherichia coli): > 128 mg/L

SMILES: CC(C)c1ccc2c(c1)CC[C@H]1[C@](C)(CO)CCC[C@]21C [POMIFERIN A]
- MIC (Bacillus subtilis [1]): 8 mg/L (≈ 27.9 µM)
- MIC (Staphylococcus aureus [2]): 4 mg/L (≈ 14 µM)
- MIC (Staphylococcus aureus [3]): 4 mg/L (≈ 14 µM)
- MIC (Escherichia coli): > 128 mg/L

SMILES: CO[C@H]1/C=C/O[C@@]2(C)Oc3c(C)c(O)c4c(O)c(c(/C=N/N5CCN(C)CC5)c(O)c4c3C2=O)NC(=O)/C(C)=C\C=C\[C@H](C)[C@H](O)[C@@H](C)[C@@H](O)[C@@H](C)[C@H](OC(C)=O)[C@@H]1C [RIFAMPIN]
- Activity (Bacillus subtilis [4]): 94%
- Activity (Bacillus subtilis [5]): 108%
- Activity (Bacillus subtilis [6]): 143%
- Activity (Bacillus subtilis [7]): 29%
- Activity (Bacillus subtilis [8]): 90%
- Activity (Bacillus subtilis [9]): 25%

SMILES: O=C(N[C@H](CO)[C@H](O)c1ccc([N+](=O)[O-])cc1)C(Cl)Cl [CHLORAMPHENICOL]
- Activity (Bacillus subtilis [10]): 74%
- Activity (Bacillus subtilis [11]): 10%
- Activity (Bacillus subtilis [12]): 83%
- Activity (Bacillus subtilis [13]): 166%
- Activity (Bacillus subtilis [14]): 141%
- Activity (Bacillus subtilis [15]): 80%

SMILES: C[C@@H]1[C@H](O)[C@@H](C)/C=C/C=C/C=C/C=C/C=C/C=C/C=C/[C@H](O[C@@H]2O[C@H](C)[C@@H](O)[C@H](N)[C@@H]2O)C[C@@H]2O[C@](O)(C[C@@H](O)C[C@@H](O)[C@H](O)CC[C@@H](O)C[C@@H](O)CC(=O)O[C@H]1C)C[C@H](O)[C@H]2C(=O)O [AMPHOTERICIN B]
- hemolysis at 2 h, 16 ug/ml [16]: 118%
- hemolysis at 2 h, 8 ug/ml [17]: 96.9%
- hemolysis at 2 h, 4 ug/ml [18]: 74.6%
- hemolysis at 2 h, 2 ug/ml [19]: 27.5%
- hemolysis at 2 h, 1 ug/ml [20]: 9.7%
- hemolysis at 2 h, 0.5 ug/ml [21]: 0%

SMILES: C=C[C@]1(C)CCC2=C(CC[C@@H]3[C@](C)(CO)CCC[C@@]23C)C1
- MIC (Bacillus subtilis [1]): 32 mg/L (≈ 111 µM)
- MIC (Staphylococcus aureus [2]): 32 mg/L (≈ 111 µM)
- MIC (Staphylococcus aureus [3]): 64 mg/L (≈ 222 µM)
- MIC (Escherichia coli): > 128 mg/L
